The text below walks through data of patent publication US20100197584A1, “USE OF CURCUMIN TO BLOCK BRAIN TUMOR FORMATION IN MICE” (Research Foundations of the City University of- New York, priority 2007, published 2010).

For series [1], the system named is GL261 (mouse glioma) cells. Kind of series: Cell viability assay using MTT, GL261. In kind it is cell-based. Conditions: 25 μM and 50 μM, 48 h or 96 h, versus control cells (FIG. 6b). How it is done: (§1) Cells. B16F10 (mouse melanoma), GL261 (mouse glioma), HOG (human oligodendroglioma), A549 (human lung cancer), and N18 (mouse neuroblastoma) cells were cultured separately in DMEM containing 10% (v/v) fetal bovine serum and 1% (v/v) penicillin-streptomycin (PS) and allowed to grow to 40% confluence in a 96-well plate.
(§2) Curcumin Treatment. Two hours before drug treatment, the medium in each well was replaced with 200 μl Neurobasal medium supplemented with 2% (v/v) B27 and 1% (v/v) PS (Drug-treatment Medium). A stock solution (40 mM) of curcumin was prepared in sterile dimethyl sulfoxide (DMSO) (Example 1). Through serial dilution of each stock solution in Drug-treatment Medium, the following concentrations were obtained: 20 μM and 50 μM (for caspase 3/7 assays) or 25 μM and 50 μM (for MTT assays). […] Additionally, the background absorbance was determined from parallel wells containing only the Drug-treatment Medium plus a particular concentration of the drug (no cells).
(§3) Cell Viability Assay Using MTT (3-(4,5-Dimethylthiazolyl-2)-2,5-Diphenyltetrazolium Bromide). […] Absorbance was measured at 570 nm using a 96-well multi scanner auto-reader with the extraction buffer used as blank. For curcumin samples, the absorbance obtained from the corresponding curcumin plus medium samples was subtracted.

For series [2], the system named is HOG (human oligodendroglioma) cells. Kind of series: Cell viability assay using MTT, HOG. In kind it is cell-based. Conditions: 25 μM and 50 μM, 48 h or 96 h, versus control cells (FIG. 6e). How it is done:
as §1, §2, §3

Series [3] in a line: Permeability of the blood-brain barrier to curcumin (HPLC of brain after tail vein injection). In kind it is in vivo, mouse. How it is done:
A curcumin solution (200 μl of 667 μM curcumin in PBS containing 3% DMSO) was injected through the tail vein of each mouse, the mice were sacrificed after 15 min, 30 min, and 2 hours, and brain regions (forebrain, hippocampus, and hypothalamus) as well as blood were collected for analysis. Each tissue fraction was diluted into 300 μl of water, homogenized, and then diluted with 700 μl of acetonitrile. Proteins and other insoluble substances were separated by centrifugation at 8000 rpm in a table-top Eppendorf microcentrifuge, and the supernatants were transferred to fresh tubes and then evaporated by blowing in nitrogen gas. The blood (100 μl) was diluted with 40 μl EDTA (500 mM) and 160 μl of water. This mixture was diluted with 700 μl of actonitrile, vortexed, protein and debris separated by centrifugation and then the supernatant evaporated under nitrogen. The residues obtained were dissolved in 50 μl of acetonitrile:water (70:30) and 30 μl of this solution injected for HPLC analysis on a C18 reverse-phase column. A standard 0.1 mM solution of curcumin dissolved in acetonitrile:water (70:30) was injected for comparison. The mobile phase was a 30-70% gradient of acetonitrile in water containing 0.1% trifluoroacetic acid (TFA). Curcumin eluted as a closely spaced triplet with the strongest peak eluting at 12.8 min.

The next series concerns cyclin D1. The experiment in a line: Western blot of B16F10 cells, cyclin D1. In kind it is cell-based, mouse. Conditions: 50 μM. The protocol: B16F10 cells were cultured in 10-cm plates and then treated in duplicate with carrier or curcumin (50 μM). Following treatment for appropriate time periods, the cells were washed with PBS, lysed in RIPA buffer (PBS containing 1% Nonidet P40, 0.5% sodium deoxycholate, 0.1% SDS, 0.5 mM Na3VO4 plus freshly added PMSF and protease inhibitor cocktail; Boeringer-Roche), and then 20 μg of lysate protein (per lane) were analyzed by SDS-10% PAGE and Western blot analysis. Antibody concentrations used were: anti-phospho-NF-κB (1:1000) (Santa Cruz Biotechnology, Santa Cruz, Calif.), anti-phospho-Akt (1:5000) (Cell Signaling, CA), anti-cyclin D1 (1:1000) (Cell Signaling, CA), anti-BclXL (1:500) (Santa Cruz Biotechnology), anti-VEGF (1:500) (Santa Cruz Biotechnology), and anti-β-actin (1:1000) (Sigma, St. Louis, Mo.).

Series [4] has as its system human pancreatic carcinoma cell lines. Conditions: human pancreatic carcinoma cell lines (Li et al. 2004); cited from earlier work.
The next series has as its system breast tumor cell lines. Conditions: several breast tumor cell lines (Mehta et al. 1997); cited from earlier work.
A further series has as its system human glioma cells. Conditions: human glioma cells in vitro (Karmakar 2006; Dhandapani 2007); cited from earlier work.

For `COc1cc(/C=C/C(=O)CC(=O)/C=C/c2ccc(O)c(OC)c2)ccc1O` [curcumin], the “cell viability (MTT)” value in series [1] and in series [2] was “dramatic decrease” each time. In addition, the “curcumin in mouse brain (HPLC trace)” value in series [3] (15 minutes after tail vein injection of 200 μl of 667 μM curcumin (FIG. 7b)) and in series [3] (30 minutes after tail vein injection of 200 μl of 667 μM curcumin (FIG. 7c)) was “presence of curcumin” in each case. The “time by which curcumin was completely metabolized” value in series [3] (mouse brain, after tail vein injection of 200 μl of 667 μM curcumin (FIG. 7d)) was no more than 2 h. Also, the “cyclin D1 levels (Western blot)” value with cyclin D1 (active cell division (first 48 h)) is given as “decrease”. For the same compound, in the series with cyclin D1 (subsequently, when cell division had slowed down), the “cyclin D1 inhibition (Western blot)” value is listed as “not observed”. The apoptosis entry is on record as “induces apoptosis” in series [4] and “triggers apoptosis” in the series with human glioma cells. Further, in the series with breast tumor cell lines, the proliferation result is reported as “antiproliferative effects”.
